In patent publication US12098433B2 (priority 2018, dated 2024):
Entries after “also recorded” stand apart in the source; their conditions may differ. Like-named read-outs stand apart in the source and are kept apart here.

Tests used:
[1] = system: atzR (via atzABC conversion of atrazine to cyanuric acid); type: biochemical, E. coli extracts; Pseudomonas ADP-1 pathway; conditions: for sensor response to triazines (specificity): FIG. 19C; for time at which ON is distinguished from OFF (kinetic divergence): 100 μM atrazine
[2] = system: unregulated cell-free protein synthesis reaction (cell-free transcription and translation); type: biochemical, E. coli
[3] = system: atzR (via atzABC conversion of atrazine to cyanuric acid); assay: Colorimetric atrazine sensor (C23O reporter), freeze-dried reactions; type: biochemical, E. coli extracts; Pseudomonas ADP-1 pathway
[4] = system: NarX / NarL two-component system
[5] = system: NarX / NarL two-component system; conditions: colorimetric C32O reporter
[6] = system: AtzR transcription factor; assay: Cell-free cyanuric acid sensor: AtzR-regulated sfGFP reporter; type: biochemical, Pseudomonas sp. ADP-1; conditions: for fold-induction of sfGFP: 100 μM
[7] = system: AtzR transcription factor; assay: Cell-free cyanuric acid sensor with colorimetric catechol 2,3-dioxygenase reporter; type: biochemical, Pseudomonas sp. ADP-1; conditions: 600 μM CYA in ON state; tubes with catechol at 30° C.
Experimental: FIG. 18. Proof-of-concept for field-deployable cyanuric acid sensing using a cell-free biosensor. (a) Optimized cell-free reactions are prepared without cyanuric acid (CYA), freeze-dried, and then rehydrated with unfiltered environmental water samples. (b) CYA in environmental water samples can be detected from freeze-dried cell-free reactions. […] (c) Time course comparisons of the OFF state from panel B, for the unfiltered environmental water samples that were not spiked with CYA. Pool water can be distinguished against lake water in less than one hour. […] CYA was added at a concentration of 600 μM in the ON state to a fresh cell-free reaction incubated at 30° C. and monitored for 90 minutes. […] Fluorescence in b and c is reported standardized to mean equivalent fluorescence (MEF) of fluorescein isothiocyanate based on a previously developed standard.
Finally, we aimed to validate if a visible output signal for the sensor could be generated without a plate reader to enable equipment-free detection of CYA from environmental samples. […] Because fluorescence of sfGFP is difficult to detect by the unaided eye, particularly in the early stages of the reaction, we replaced the coding sequence of the reporter plasmid instead with the enzyme catechol 2,3-dioxygenase (C23DO). […]

## CC(C)Nc1nc(Cl)nc(NC(C)C)n1 [propazine]
[1]
  sensor response to triazines (specificity): weak activation; also recorded: capable of detecting
[2]
  poisoning / inhibitory effect on cell-free protein synthesis (sfGFP): Minimal poisoning

## CCNc1nc(Cl)nc(NC(C)C)n1 [atrazine]
[1]
  calculated limit of detection above background: approximately 20 μM
  sensor response to triazines (specificity): capable of detecting
[1]; optimized sensor
  time at which ON is distinguished from OFF (kinetic divergence): approximately one hour
[1]; optimized sensor, listed as Atrazine
  time at which ON is distinguished from OFF (kinetic divergence): within one hour
[1]; doped at 100 μM, all enriched extracts plus blank extract
  detection by sensor: could detect
[1]; optimized sensor, dose-response curve FIG. 22E
  overall limit of detection (figure legend): around 20
[1]; read-out: half-maximal signal
  EC50: ~66 µM
[3]; 100 nM atrazine, three replicates, four-hour limit
  reactions changing color: one of the three reactions
[3]; freeze-dried, all three replicates turned on within four-hour limit
  limit of detection for the enzymatic reporter: 1
[2]; 100 μM
  poisoning / inhibitory effect on cell-free protein synthesis (sfGFP): Minimal poisoning

## O=[N+]([O-])O [nitrate]
[4]; 1 mM nitrate, absence of supplemental NarX
  sensor activation: activated
[4]; 1 mM nitrate, certain ratios of NarX- and NarL-enriched extracts
  detection by sensor: robust detection
[4]; optimal conditions, sfGFP reporter
  sensitivity of cell-free system: more sensitive than the environmental limit
[5]
  lowest concentration detected, visible by naked eye: 10 µM

## Nc1nc(N)nc(N)n1 [melamine]
[1]
  sensor response to triazines (specificity): unreactive
[2]; 100 μM
  poisoning / inhibitory effect on cell-free protein synthesis (sfGFP): Minimal poisoning

## O=c1[nH]c(=O)[nH]c(=O)[nH]1 [cyanuric acid]
[6]; optimal 1 nM AtzR plasmid and 10 nM reporter plasmid, 4-hour incubation
  fold-induction of sfGFP: > 12 fold
[6]; reporter based on Promoter P2 (E. coli consensus −10 site), promoter screen
  fold-induction of sfGFP: ~8 fold
[6]; optimal plasmid concentrations
  linear operating range of dose-response: 0 to 100 µM
[7]
  time to production of yellow color (reporter activation): ≤ 1 h
[1]
  sensor response to triazines (specificity): capable of detecting
